How the values were obtained:
[1] = In vitro fragmentation of DNA in the presence of excess calf thymus topoisomerase.
[2] = Minimum concentration that produced 50% fragmentation of DNA was measured in the presence of excess calf thymus topoisomerase.

Compound	IC50 [1]	IC50 [2]
CCc1c2c(nc3cnc(CCCN(C)C)cc13)-c1cc3c(c(=O)n1C2)COC(=O)[C@]3(O)CC [(S)-9-(3-Dimethylamino-propyl)-4,11-diethyl-4-hydroxy-1,12-dihydro-4H-2-oxa-6,8,12a-triaza-dibenzo[b,h]fluorene-3,13-dione]	1490 nM	
CCc1c2c(nc3cnc(C#CCN)cc13)-c1cc3c(c(=O)n1C2)COC(=O)[C@]3(O)CC [(S)-9-(3-Amino-prop-1-ynyl)-4,11-diethyl-4-hydroxy-1,12-dihydro-4H-2-oxa-6,8,12a-triaza-dibenzo[b,h]fluorene-3,13-dione]		1080 nM
CC[C@@]1(O)C(=O)OCc2c1cc1n(c2=O)Cc2c-1nc1c[n+]([O-])c(CNC(=O)OC(C)(C)C)cc1c2C [((S)-4-Ethyl-4-hydroxy-11-methyl-3,13-dioxo-8-oxy-3,4,12,13-tetrahydro-1H-2-oxa-6,8,12a-triaza-dibenzo[b,h]fluoren-9-ylmethyl)-carbamic acid tert-butyl ester]	217 nM	
CCc1c2c(nc3cnc(C(=N)NO)cc13)-c1cc3c(c(=O)n1C2)COC(=O)[C@]3(O)CC [(S)-4,11-Diethyl-4,N-dihydroxy-3,13-dioxo-3,4,12,13-tetrahydro-1H-2-oxa-6,8,12a-triaza-dibenzo[b,h]fluorene-9-carboxamidine]		71 nM
CC[C@@]1(O)C(=O)OCc2c1cc1n(c2=O)Cc2c-1nc1cnc(C#CCN)cc1c2C [(S)-9-(3-Amino-prop-1-ynyl)-4-ethyl-4-hydroxy-11-methyl-1,12-dihydro-4H-2-oxa-6,8,12a-triaza-dibenzo[b,h]fluorene-3,13-dione]	505 nM	
CCc1c2c(nc3cnc(C#N)cc13)-c1cc3c(c(=O)n1C2)COC(=O)[C@]3(O)CC [(S)-4,11-Diethyl-4-hydroxy-3,13-dioxo-3,4,12,13-tetrahydro-1H-2-oxa-6,8,12a-triaza-dibenzo[b,h]fluorene-9-carbonitrile]	268 nM	
CCc1c2c(nc3cnc(C(=O)NCCN(C)C)cc13)-c1cc3c(c(=O)n1C2)COC(=O)[C@]3(O)CC [(S)-4,11-Diethyl-4-hydroxy-3,13-dioxo-3,4,12,13-tetrahydro-1H-2-oxa-6,8,12a-triaza-dibenzo[b,h]fluorene-9-carboxylic acid (2-dimethylamino-ethyl)-amide]	9330 nM	
CCc1c2c(nc3cnc(C(=N)N)cc13)-c1cc3c(c(=O)n1C2)COC(=O)[C@]3(O)CC [(S)-4,11-Diethyl-4-hydroxy-3,13-dioxo-3,4,12,13-tetrahydro-1H-2-oxa-6,8,12a-triaza-dibenzo[b,h]fluorene-9-carboxamidine]		33 nM
CCc1c2c(nc3cnc(CN)cc13)-c1cc3c(c(=O)n1C2)COC(=O)[C@]3(O)CC [(S)-9-Aminomethyl-4,11-diethyl-4-hydroxy-1,12-dihydro-4H-2-oxa-6,8,12a-triaza-dibenzo[b,h]fluorene-3,13-dione]	167 nM	
CC[C@@]1(O)C(=O)OCc2c1cc1n(c2=O)Cc2c-1nc1cnc(CN)cc1c2C [(S)-9-Aminomethyl-4-ethyl-4-hydroxy-11-methyl-1,12-dihydro-4H-2-oxa-6,8,12a-triaza-dibenzo[b,h]fluorene-3,13-dione]		232 nM
CCc1c2c(nc3cnccc13)-c1cc3c(c(=O)n1C2)COC(=O)[C@]3(O)CC [(S)-4,11-Diethyl-4-hydroxy-1,12-dihydro-4H-2-oxa-6,8,12a-triaza-dibenzo[b,h]fluorene-3,13-dione]	336 nM	
CC[C@@]1(O)C(=O)OCc2c1cc1n(c2=O)Cc2cc3ccncc3nc2-1 [(S)-4-Ethyl-4-hydroxy-1,12-dihydro-4H-2-oxa-6,8,12a-triaza-dibenzo[b,h]fluorene-3,13-dione]	383 nM	
CC[C@@]1(O)C(=O)OCc2c1cc1n(c2=O)Cc2c-1nc1c[n+]([O-])c(CN)cc1c2C [(S)-9-Aminomethyl-4-ethyl-4-hydroxy-11-methyl-8-oxy-1,12-dihydro-4H-2-oxa-6,8,12a-triaza-dibenzo[b,h]fluorene-3,13-dione]		190 nM
CC[C@@]1(O)C(=O)OCc2c1cc1n(c2=O)Cc2cc3cc[n+]([O-])cc3nc2-1 [(S)-4-Ethyl-4-hydroxy-8-oxy-1,12-dihydro-4H-2-oxa-6,8,12a-triaza-dibenzo[b,h]fluorene-3,13-dione]	1180 nM	
CCc1c2c(nc3cnc(Br)cc13)-c1cc3c(c(=O)n1C2)COC(=O)[C@]3(O)CC [(S)-9-Bromo-4,11-diethyl-4-hydroxy-1,12-dihydro-4H-2-oxa-6,8,12a-triaza-dibenzo[b,h]fluorene-3,13-dione]	122 nM	
CC[C@@]1(O)C(=O)OCc2c1cc1n(c2=O)Cc2c-1nc1cnc(C#CCN3CCOCC3)cc1c2C [(S)-4-Ethyl-4-hydroxy-11-methyl-9-(3-morpholin-4-yl-prop-1-ynyl)-1,12-dihydro-4H-2-oxa-6,8,12a-triaza-dibenzo[b,h]fluorene-3,13-dione]	1110 nM	
CCc1c2c(nc3c[n+](C)ccc13)-c1cc3c(c(=O)n1C2)COC(=O)[C@]3(O)CC [(S)-4,11-Diethyl-4-hydroxy-8-methyl-3,13-dioxo-3,4,12,13-tetrahydro-1H-2-oxa-6,12a-diaza-8-azonia-dibenzo[b,h]fluorene; iodide]		1460 nM
CCOC(=O)c1cc2c(CC)c3c(nc2cn1)-c1cc2c(c(=O)n1C3)COC(=O)[C@]2(O)CC [(S)-4,11-Diethyl-4-hydroxy-3,13-dioxo-3,4,12,13-tetrahydro-1H-2-oxa-6,8,12a-triaza-dibenzo[b,h]fluorene-9-carboxylic acid ethyl ester]	949 nM	
CCc1c2c(nc3cnc(C#CCN(C)C)cc13)-c1cc3c(c(=O)n1C2)COC(=O)[C@]3(O)CC [(S)-9-(3-Dimethylamino-prop-1-ynyl)-4,11-diethyl-4-hydroxy-1,12-dihydro-4H-2-oxa-6,8,12a-triaza-dibenzo[b,h]fluorene-3,13-dione]	1330 nM	

Reference: BindingDB's records for doi:10.1021/jm00007a008 (Glaxo Inc. Research Institute, 1995)
